Test results: US20090312396A1, “METHODS FOR CANCER TREATMENT USING TAK1 INHIBITORS” (AstraZeneca AB, priority 2006, published 2009)

What was measured:
Test in all cases: AlamarBlue proliferation assay, GI50
Assay type in all cases: cell-based
L-363 = settings: Homo sapiens, 72 hours, Table 5, read-out: GI50 L-363 plasma cell leukemia
Procedure: (§1) The TAK1 inhibitors are known in the art (see for example, WO 2003010158, WO 2003010163 and WO2004063186 the disclosures of which are incorporated by reference herein). All cell lines were plated at 10,000 cells/well in flat-bottomed 96 well plates and dosed with test compounds in triplicate over a 10 point dosing range from 0 to 30 μmolesL^−1. All cell lines were incubated with test compounds for a total of 72 hours. Background levels were determined for a control (undosed) plate within 2 hours of dosing test compounds. Following the dosing period, the extent of proliferation was measured by adding 1/10 (vol/vol) AlamarBlue reagent to every well and incubating the plates for a further 4 hours. The reaction was stopped by the addition of SDS to a final concentration of 0.1%. Fluorescence was measured at 545 nm (excitation) and 600 nm (emission). Growth inhibition 50 (GI50) values were determined for each test compound across the panel.
(§2) The experiments to generate the results for both Tables 5 and 6 were performed as described above.

U937 = settings: Homo sapiens, U-937, 72 hours, Table 6, read-out: GI50 U937 Histiocytic lymphoma
Procedure: as §1, §2

KARPAS-620 = settings: Homo sapiens, 72 hours, Table 5, read-out: GI50 KARPAS-620 plasma cell leukemia
Procedure: as §1, §2

JVM-3 = settings: Homo sapiens, 72 hours, Table 6, read-out: GI50 JVM-3 B-PLL
Procedure: as §1, §2

SC-1 = settings: Homo sapiens, 72 hours, Table 6, read-out: GI50 SC-1 FL
Procedure: as §1, §2

MOLP-8 = settings: Homo sapiens, 72 hours, Table 5, read-out: GI50 MOLP-8 Multiple myeloma
Procedure: as §1, §2

Ramos = settings: Homo sapiens, 72 hours, Table 6, read-out: GI50 Ramos Burkitts Lymphoma
Procedure: as §1, §2

AM0-1 = settings: Homo sapiens, 72 hours, Table 5, read-out: GI50 AM0-1 plasmacytoma
Procedure: as §1, §2

DERL 2 = settings: Homo sapiens, T-cell, 72 hours, Table 6, read-out: GI50 DERL 2 T cell lymphoma
Procedure: as §1, §2

RPMI-8226 = settings: Homo sapiens, 72 hours, Table 5, read-out: GI50 RPMI-8226 Multiple myeloma
Procedure: as §1, §2

**Q.** `COC(C)(C)CNCc1ccc(-c2cc(NC(N)=O)c(C(N)=O)s2)cc1` [Compound 4, 3-[(aminocarbonyl)amino]-5-(4-{[(2-methoxy-2-methylpropyl)amino]methyl}phenyl)thiophene-2-carboxamide] was tested. Which GI50 (L-363) did it give?
**A.** 350 nM

**Q.** What about the GI50 (U937) of the same compound?
**A.** 120 nM

**Q.** And the GI50 (KARPAS-620)?
**A.** 140 nM

**Q.** And the GI50 (JVM-3)?
**A.** 140 nM

**Q.** What about the GI50 (SC-1) of the same compound?
**A.** 2880 nM

**Q.** What about the GI50 (MOLP-8) of the same compound?
**A.** 90 nM

**Q.** And the GI50 (Ramos)?
**A.** 210 nM

**Q.** What about the GI50 (AM0-1) of the same compound?
**A.** 910 nM

**Q.** What about the GI50 (DERL 2) of the same compound?
**A.** 310 nM

**Q.** What about the GI50 (RPMI-8226) of the same compound?
**A.** 1600 nM
